Measurements published in ChEMBL document CHEMBL5390199, “Discovery of novel N-aryl-2-trifluoromethyl-quinazoline-4-amine derivatives as the inhibitors of tubulin polymerization in leukemia cells” (Eur J Med Chem, 2023).
Activity calls are given as the source filed them. The calls are words filed in the database; no cut-off is given here.

How the values were obtained:
HEL [1] = test: Cytotoxicity against human HEL cells assessed as inhibition of cell growth incubated for 48 hrs by MTT assay; type: functional, cell-based
K562 [2] = test: Cytotoxicity against human K562 cells assessed as inhibition of cell growth incubated for 48 hrs by MTT assay; type: functional, cell-based; conditions: K562, 48 h
HeLa = test: Cytotoxicity against human HeLa cells assessed as inhibition of cell growth incubated for 48 hrs by MTT assay; type: functional, cell-based
LNCaP = test: Cytotoxicity against human LNCaP cells assessed as inhibition of cell growth incubated for 48 hrs by MTT assay; type: functional, cell-based
K562 [3] = test: Induction of cell cycle arrest in human K562 cells assessed as increase in accumulation of cells at G2/M phase incubated for 12 hrs by flow cytometry; type: functional, cell-based
K562 [4] = test: Induction of apoptosis in human K562 cells at 0.5 uM incubated for 48 hrs by annexin V-FITC/propidium iodide staining based flow cytometry relative to control; type: functional
K562 [5] = test: Induction of cell cycle arrest in human K562 cells assessed as reduction in accumulation of cells at S phase incubated for 12 hrs by flow cytometry; type: functional, cell-based
K562 [6] = test: Induction of morphological changes in human K562 cells by fluorescence microscopic analysis; type: functional, cell-based
[7] = Selectivity index, ratio of IC50 for cytotoxicity against human L02 cells to IC50 for cytotoxicity against human K562 cells; type: toxicity, cell-based; conditions: L02 cells and K562 cells, read-out: Ratio IC50
K562 [8] = test: Induction of cell cycle arrest in human K562 cells assessed as reduction in accumulation of cells at G0/G1 phase incubated for 12 hrs by flow cytometry; type: functional, cell-based
[9] = Cytotoxicity against human L02 cells assessed as inhibition of cell growth incubated for 48 hrs by MTT assay; type: toxicity, cell-based
HEL [10] = test: Induction of morphological changes in human HEL cells by fluorescence microscopic analysis; type: functional, cell-based
HUVEC = test: Antiangiogenic activity against human HUVEC cells assessed as inhibition of cell migration at 0.5 uM measured after 24 hrs by scratch wound healing assay; type: functional, cell-based
HEL [11] = test: Induction of cell cycle arrest in human HEL cells assessed as increase in accumulation of cells at G2/M phase incubated for 12 hrs by flow cytometry; type: functional, cell-based
HEL [12] = test: Induction of cell cycle arrest in human HEL cells assessed as reduction in accumulation of cells at G0/G1 phase incubated for 12 hrs by flow cytometry; type: functional, cell-based
HEL [13] = test: Induction of cell cycle arrest in human HEL cells assessed as reduction in accumulation of cells at S phase incubated for 12 hrs by flow cytometry; type: functional, cell-based
[14] = Selectivity index, ratio of IC50 for cytotoxicity against human L02 cells to IC50 for cytotoxicity against human HEL cells
HEL [15] = test: Induction of apoptosis in human HEL cells at 0.5 uM incubated for 48 hrs by annexin V-FITC/propidium iodide staining based flow cytometry relative to control; type: functional
[16] = Homo sapiens, HeLa, 48 h, read-out: IC50

Row | SMILES | IC50 (HEL [1]) | IC50 (K562 [2]) | IC50 (HeLa; [16]) | IC50 (LNCaP) | Activity (K562 [6]) | Activity (HEL [10]) | Activity (HUVEC) | further results
1 | C=CC(=O)Nc1cc(N(C)c2nc(C(F)(F)F)nc3ccc(F)cc23)ccc1OC | 0.422 µM | 0.986 µM | 0.165 µM | 0.402 µM | – | – | – | –
2 | CNc1cc(N(C)c2nc(C(F)(F)F)nc3ccc(F)cc23)ccc1OC | 0.273 µM | 2.25 µM | 0.088 µM | 0.668 µM | – | – | – | –
3 | COc1ccc(N(C)c2nc(C(F)(F)F)nc3ccc(Cl)cc23)c([N+](=O)[O-])c1 | 1.32 µM | 2.25 µM | 0.613 µM | 2.59 µM | – | – | – | –
4 | CN(c1ccc2c(ccn2C)c1)c1nc(C(F)(F)F)nc2ccc(F)cc12 | 0.363 µM | 0.45 µM | 0.022 µM | 0.096 µM | Active | Active | Active | Activity (K562 [3]): Active; Activity (K562 [4]): 20.3%; Activity (K562 [5]): Active; selectivity ratio [7]: 6.29; Activity (K562 [8]): Active; IC50 at 48 h [9]: 2.83 µM
5 | COc1cc2c(c(OC)c1OC)-c1ccc(OC)c(=O)cc1[C@@H](NC(C)=O)CC2 [COLCHICINE] | 0.156 µM | 0.975 µM | 0.015 µM | 0.245 µM | – | – | – | –
6 | COc1ccc(N(C)c2nc(C(F)(F)F)nc3ccc(Cl)cc23)cc1[N+](=O)[O-] | 0.397 µM | 0.177 µM | 1 µM | 0.589 µM | Active | Active | Active | Activity (K562 [3]): Active; Activity (K562 [4]): 12.7%; Activity (K562 [5]): Active; selectivity ratio [7]: 3.22; Activity (K562 [8]): Active; IC50 at 48 h [9]: 0.57 µM
7 | COc1ccc(N(C)c2nc(C(F)(F)F)nc3cc(OC)c(O)cc23)cc1 | 4.52 µM | 2.52 µM | – | 1.63 µM | – | – | – | IC50 (HeLa; hela): Not Active
8 | Cc1ccc2nc(C(F)(F)F)nc(N(C)c3ccc4c(ccn4C)c3)c2c1 | 0.992 µM | 1.21 µM | 1.3 µM | 0.945 µM | – | – | – | –
9 | CN(c1ccc2c(ccn2C)c1)c1nc(C(F)(F)F)nc2ccc(Cl)cc12 | 0.089 µM | 0.684 µM | 0.335 µM | 0.138 µM | Active | Active | Active | Activity (HEL [11]): Active; Activity (HEL [12]): Active; Activity (HEL [13]): Active; Ratio IC50 [14]: 3.45; Activity (HEL [15]): 28.5%
10 | Cc1ccc2nc(C(F)(F)F)nc(N(C)c3ccc(C(F)(F)F)cc3)c2c1 | 1.4 µM | 1.93 µM | 2.87 µM | 2.66 µM | – | – | – | –
